Patent US10039806B2, “Methods and compositions for treating antiprogestin-resistant cancers” (Fundación Sales, priority 2011, dated 2018)

Assays:
C4-HIR cells = test: (3H)-thymidine uptake, primary cultures of purified epithelial cells; format: cell-based, mouse; details: 48 h, with MPA; P<0.001
Protocol: (§1) Epithelial cells and carcinoma-associated fibroblasts were separated by differential sedimentation and plated with 10% FCS. Carcinoma-associated fibroblasts were allowed to attach for 0.5 h and the epithelial cells for 24-48 h. The medium was replaced by fresh medium with 10% FCS; thereafter, it was changed every 2-3 days.
(§2) (3H)-thymidine-uptake was used as an indirect method to evaluate cell proliferation. In brief, cells were seeded into 96-well microplates. After attachment (24 h), the cells were incubated for 24 h with 1% steroid-stripped FCS and then for 48 h with the experimental solutions to be tested in 1% chFCS. Fifty percent of the medium was replaced with fresh medium every 24 h. The cells were incubated with 0.4 μCi of 3H-thymidine (specific activity: 20 Ci/mmol) for 24 h, trypsinized, and harvested in a cell harvester. In experiments in which 5azadC was used, the experiments were carried out using proliferating cells (presence of 10% FCS) to guarantee the effect of the demethylating agent. Three different experiments were made using octuplicates, and the means and standard deviations of one representative experiment of the other three are shown. The results are expressed as the proliferation index (cpm […] experimental group/cpm control; mean±SEM).

C4-HI cells = test: as above; format: cell-based, mouse; details: 48 h, with MPA; P<0.001
Protocol: as §1, §2

T47D cells = details: cited from earlier work
PR = molecular target: T1, PR (Homo sapiens, UniProt P06401); details: T47D cells transfected with MMTV-CAT; cited from earlier work
T1 sequence (P06401 1-933): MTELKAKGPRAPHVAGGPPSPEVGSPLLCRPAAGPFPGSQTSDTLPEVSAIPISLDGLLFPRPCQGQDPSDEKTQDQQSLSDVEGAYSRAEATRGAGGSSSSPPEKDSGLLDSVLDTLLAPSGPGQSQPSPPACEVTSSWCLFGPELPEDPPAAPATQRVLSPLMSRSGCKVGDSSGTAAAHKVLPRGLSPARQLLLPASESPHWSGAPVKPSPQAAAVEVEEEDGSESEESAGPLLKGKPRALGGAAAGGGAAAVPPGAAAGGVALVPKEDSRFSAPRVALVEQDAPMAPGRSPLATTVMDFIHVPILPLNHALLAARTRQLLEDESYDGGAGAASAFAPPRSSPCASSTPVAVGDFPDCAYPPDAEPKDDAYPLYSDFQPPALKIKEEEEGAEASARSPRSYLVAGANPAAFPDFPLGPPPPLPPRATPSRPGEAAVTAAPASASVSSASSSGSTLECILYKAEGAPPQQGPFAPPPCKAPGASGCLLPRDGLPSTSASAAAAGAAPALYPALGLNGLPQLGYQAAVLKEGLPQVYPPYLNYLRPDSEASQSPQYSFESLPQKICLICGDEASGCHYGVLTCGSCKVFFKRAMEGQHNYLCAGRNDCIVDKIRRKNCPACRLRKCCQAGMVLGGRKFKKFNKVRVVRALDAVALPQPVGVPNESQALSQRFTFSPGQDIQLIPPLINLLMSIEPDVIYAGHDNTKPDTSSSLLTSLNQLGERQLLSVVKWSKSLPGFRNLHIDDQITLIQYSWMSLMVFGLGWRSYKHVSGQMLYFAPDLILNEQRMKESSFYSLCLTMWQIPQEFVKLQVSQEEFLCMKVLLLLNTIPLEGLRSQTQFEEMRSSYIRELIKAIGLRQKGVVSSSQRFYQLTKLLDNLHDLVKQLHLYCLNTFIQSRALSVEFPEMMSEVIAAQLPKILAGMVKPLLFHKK

[1] = tested on: epithelial cells from breast cancer samples; test: Primary cultures from breast cancer samples: cell number or Ki67; format: cell-based, human
Text: The samples were obtained at surgery from patients diagnosed with breast cancer at the […]. de Martinez Hospital from General Pacheco and at the […] Hospital of Buenos Aires after signing the informed consent (n=70; median age 55 year). Protocols were approved by the Institutional Ethical Review Board. Whenever possible, one piece of the sample was kept in dry ice immediately after surgery and another piece was kept in culture medium and transported to IBYME. Tumor samples were processed by mechanical and enzymatic degradation and epithelial cells were purified by differential sedimentation techniques (7). The epithelial cells were cultured with DMEM/F12 medium plus 10% fetal calf serum (FCS). Once the cultures were overcrowded, they were subcultured and equal numbers of cells were seeded in 24 well plates. […] OH-Tamoxifen was also used as a control. After one week of treatment, the cells were trypsinized and the total number of cells in each well was counted or alternatively, they were fixed to evaluate the Ki67 (proliferation marker) expression by IHC. In several cases in which there were carcinoma associated fibroblasts intermingled with the epithelial cells, a double staining of Ki67 and cytokeratin (CK) was performed to consider the proliferating cells among the total number of epithelial cells (CK+). An inhibitory index was calculated for each tumor.

meningiomas = details: 200 mg/day for 2-31 months; after one year; cited from earlier work
[2] = tested on: thymic, renal pelvis, colon, pancreatic carcinomas, leiomyosarcoma, histiocytoma; details: 200 mg/day; cited from earlier work
[3] = tested on: C4-HI or C4-HIR epithelial cells with carcinoma-associated fibroblasts; test: (3H)-thymidine uptake, co-cultures with carcinoma-associated fibroblasts; format: cell-based, mouse; details: own or other tumor's fibroblasts
Protocol: Trypsinized cells were resuspended and equal amounts of epithelial cells and carcinoma-associated fibroblasts were seeded with 10% FCS that was replaced after attachment by 1% steroid-stripped FCS. […] The same amount of epithelial cells or carcinoma-associated fibroblasts or double the amount of purified cells was used for comparison.
as §2

C4-HI = test: MPA breast cancer model, responsive tumor in vivo; set-up: species or system mouse
[4] = tested on: MXT mouse model of breast cancer; details: 1 or 10 mg/kg/day from one day post-transplantation; cited from earlier work
[5] = tested on: primary cultures of responsive tumors; test: Primary cultures of responsive tumors of the MPA model; format: cell-based, mouse

CC#C[C@]1(O)CC[C@H]2[C@@H]3CCC4=CC(=O)CCC4=C3[C@@H](c3ccc(N(C)C)cc3)C[C@@]21C [RU-486, mifepristone]
MPA-induced proliferative effect (C4-HIR cells): abolished
MPA-induced proliferative effect (C4-HI cells): abolished
effects on T47D cells (T47D cells; 5% FCS): inhibitory effects
proliferation of T47D and MCF-7 cells (T47D cells; MIF at micromolar concentrations): stimulate the proliferation
E2-induced cell proliferation (T47D cells; clone 11, ER- and PR-positive): specifically inhibit E2-induced cell proliferation
effect in cells treated with analogs of cyclic AMP (PR): exerts an agonistic effect
number of cells as compared to the controls ([1]; 10^-8 M, one week, 3 out of 8 cases, p<0.05): significant decrease in the number of cells
cell proliferation, case #137 ([1]; ER+ PR+ invasive ductal carcinoma, high PR-A/PR-B, 10^-8 M): decrease in cell proliferation
effect on cell proliferation ([1]; samples with high levels of PR-A expression): inhibitory effect
in vitro responsiveness ([1]; three PR negative tumors): no in vitro responsiveness
tumor response (meningiomas): Five out of thirteen tumors responded
clinical outcome [2]: Improvements and pain relief were observed in all patients
co-culture cell proliferation [3]: inhibited
differentiation (histology) (C4-HI; mouse, in vivo): increase in differentiation
tumor growth (C4-HI; tumors with higher PR-A than PR-B, FIG. 15): completely inhibited
tumor take and stimulatory effects of E2 and MPA [4]: inhibited both tumor take and the stimulatory effects of E2 and MPA
ERK phosphorylation [5]: increased ERK phosphorylation
